Experimental data: EP4818158A1, “BIARYL COMPOUND” (Kissei Pharmaceutical Co., Ltd., priority 2023, dated 2025)

Biological target: T1, human TSHR (Homo sapiens, UniProt P16473)
T1 construct: expressed in transfected cells
Experiment: Antagonist activity using TSH-induced cAMP generation in human TSHR-stably expressing CHO cells
Type: cell-based
Settings: human TSH 50 ng/mL
Procedure: Measurement of antagonist activity using TSH-induced cAMP generation in human TSHR-stably expressing CHO cells as an indicator
The gene sequence (reference number: NM_000369.2) of a human TSHR was inserted into multiple cloning sites of pcDNA3.1 (+). Prepared plasmid vectors were introduced into CHO cells using a lipofection method, and human TSHR-stably expressing CHO cells were established. Obtained cells were seeded in a 96-well poly-D-lysine-coated plate at 5 × 10^4 cells/well and cultured in an F12 culture medium containing 10%FBS, 400 µg/mL of G418, 50 U/mL of penicillin, and 50 µg/mL of streptomycin under conditions of 37°C and 5% CO2 for one day. After the culture medium was removed, the cells were washed twice with 100 µL of an assay buffer solution (Hanks' Balanced Salt Solution containing 20 mM HEPES and 1 mM IBMX) per well. 30 µL of a test compound-containing assay buffer solution was added to the well and incubated at room temperature for 15 minutes. Next, 30 µL of an assay buffer solution containing human TSH (final concentration: 50 ng/mL, R&D Systems, Inc.) was added thereto and incubated at 37°C for one hour. A supernatant was removed, a Lysis and Detection Buffer 2(Cisbio) was added thereto, and the mixture was incubated at room temperature for one hour to prepare a cell lysate. According to the instruction manual of a cAMP Gs HiRange kit (Cisbio), the cell lysate, d2-labeled cAMP, and anti-cAMP Europium Cryptate labeled antibodies (Cisbio) were reacted together in a 384-well white microplate. Next, fluorescence intensity ratios (measurement wavelengths: 665 nm/620 nm) were measured using a multi-plate reader (PHERAstar FSX, BMG LABTECH, Japan). The fluorescence intensity ratio of each sample was converted to a cAMP content using a standard curve. The cAMP content was converted as a percentage of the control value to calculate a cAMP generation rate. The cAMP generation rates were plotted against the test compound concentrations using Prism (Graph Pad Software Inc.) to calculate IC50 values. The IC50's of the individual test compounds are shown in the above tables. In the tables, IC50 < 0.3 µM was denoted as A, and 0.3 µM ≤ IC50 < 30 µM was denoted as B. Cases where the IC50 values were not calculated for test compounds from which activity was recognized are denoted as C.

T1 sequence (P16473 21-764): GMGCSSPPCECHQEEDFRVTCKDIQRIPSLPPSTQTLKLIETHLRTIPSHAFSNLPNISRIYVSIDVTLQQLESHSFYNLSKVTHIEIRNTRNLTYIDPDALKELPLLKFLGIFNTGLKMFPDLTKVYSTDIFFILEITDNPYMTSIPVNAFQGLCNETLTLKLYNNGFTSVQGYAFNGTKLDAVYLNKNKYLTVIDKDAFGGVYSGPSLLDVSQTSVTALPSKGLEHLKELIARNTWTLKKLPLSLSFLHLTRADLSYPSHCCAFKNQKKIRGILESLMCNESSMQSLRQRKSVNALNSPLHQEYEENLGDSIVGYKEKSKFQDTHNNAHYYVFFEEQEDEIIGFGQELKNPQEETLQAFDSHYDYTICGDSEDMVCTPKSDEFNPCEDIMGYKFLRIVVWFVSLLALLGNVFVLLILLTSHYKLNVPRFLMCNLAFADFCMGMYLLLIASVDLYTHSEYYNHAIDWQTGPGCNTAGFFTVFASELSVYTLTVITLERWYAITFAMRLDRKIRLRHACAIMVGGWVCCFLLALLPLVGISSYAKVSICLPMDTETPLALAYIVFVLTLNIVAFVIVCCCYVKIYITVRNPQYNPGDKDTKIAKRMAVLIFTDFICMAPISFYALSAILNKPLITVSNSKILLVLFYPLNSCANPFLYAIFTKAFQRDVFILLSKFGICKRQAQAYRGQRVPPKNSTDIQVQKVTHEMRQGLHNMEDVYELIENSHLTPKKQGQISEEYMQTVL

| SMILES | IC50 |
| --- | --- |
| NC(=O)NCc1ncccc1-c1ccc(NC(=O)OC[C@H]2C[C@@H]2F)c(F)c1Cc1ccccc1F (relative stereo) [Example A-32] | < 300 nM |
| CC(C)(C)OC(=O)Nc1ccc(-c2cccnc2CNC(N)=O)c(Cc2ccccc2F)c1F [Example A-1, tert-Butyl (2-fluoro-3-(2-fluorobenzyl)-4-(2-(ureidomethyl)pyridin-3-yl)phenyl)carbamate] | < 300 nM |
| CC(C)(C)OC(=O)Nc1ccc(-c2cccnc2CNC(N)=O)c(Cc2ccccc2C#N)c1F [Example A-2, tert-Butyl (3-(2-cyanobenzyl)-2-fluoro-4-(2-(ureidomethyl)pyridin-3-yl)phenyl)carbamate] | 300 to 30000 nM |
| CC(C)(C)OC(=O)Nc1ccc(-c2cccnc2CNC(N)=O)c(Cc2c(F)cccc2C#N)c1F [Example A-3, tert-Butyl (3-(2-cyano-6-fluorobenzyl)-2-fluoro-4-(2-(ureidomethyl)pyridin-3-yl)phenyl)carbamate] | 300 to 30000 nM |
| CC1(OC(=O)Nc2ccc(-c3cccnc3CNC(N)=O)c(Cc3ccccc3F)c2F)CC1 [Example A-4, 1-Methylcyclopropyl (2-fluoro-3-(2-fluorobenzyl)-4-(2-(ureidomethyl)pyridin-3-yl)phenyl)carbamate] | < 300 nM |
| NC(=O)NCc1ncccc1-c1ccc(NC(=O)O[C@H]2C[C@H](F)C2)c(F)c1Cc1ccccc1F [Example A-5, trans-3-Fluorocyclobutyl (2-fluoro-3-(2-fluorobenzyl)-4-(2-(ureidomethyl)pyridin-3-yl)phenyl)carbamate] | < 300 nM |
| NC(=O)NCc1ncccc1-c1ccc(NC(=O)OC2CC(F)(F)C2)c(F)c1Cc1ccccc1F [Example A-6] | < 300 nM |
| CC(C)(C#N)COC(=O)Nc1ccc(-c2cccnc2CNC(N)=O)c(Cc2ccccc2F)c1F [Example A-7] | < 300 nM |
| N#CC1(COC(=O)Nc2ccc(-c3cccnc3CNC(N)=O)c(Cc3ccccc3F)c2F)CC1 [Example A-8] | < 300 nM |
| Cc1ccnc(CNC(N)=O)c1-c1ccc(NC(=O)OC(C)(C)C)c(F)c1Cc1ccccc1 [Example A-9, tert-Butyl (3-benzyl-2-fluoro-4-(4-methyl-2-(ureidomethyl)pyridin-3-yl)phenyl)carbamate] | 300 to 30000 nM |
| Cc1cnc(CNC(N)=O)c(-c2ccc(NC(=O)OC(C)(C)C)c(F)c2Cc2ccccc2F)c1 [Example A-10, tert-Butyl (2-fluoro-3-(2-fluorobenzyl)-4-(5-methyl-2-(ureidomethyl)pyridin-3-yl)phenyl)carbamate] | 300 to 30000 nM |
| CC(c1ccccc1)c1cc(NC(=O)OC(C)(C)C)ccc1-c1cccnc1/C=C/C(N)=O (centres unmarked) [Example A-11, tert-Butyl (E)-(4-(2-(3-amino-3-oxopropan-1-en-1-yl)pyridin-3-yl)-3-(1-phenylethyl)phenyl)carbamate] | 300 to 30000 nM |
| CC(c1ccccc1)c1cc(NC(=O)OC(C)(C)C)ccc1-c1cccnc1CCC(N)=O (centres unmarked) [Example A-12, tert-Butyl (4-(2-(3-amino-3-oxopropyl)pyridine-3-yl)-3-(1-phenylethyl)phenyl)carbamate] | 300 to 30000 nM |
| Cc1c(NC(=O)OC(C)(C)C)ccc(-c2cccnc2CNC(N)=O)c1Cc1ccccc1F [Example A-13, tert-Butyl (3-(2-fluorobenzyl)-2-methyl-4-(2-(ureidomethyl)pyridin-3-yl)phenyl)carbamate] | < 300 nM |
| CC(C)(C)OC(=O)Nc1c(F)cc(-c2cccnc2CNC(N)=O)c(Cc2ccccc2F)c1F [Example A-14, tert-Butyl (2,6-difluoro-3-(2-fluorobenzyl)-4-(2-(ureidomethyl)pyridin-3-yl)phenyl)carbamate] | < 300 nM |
| CC(C)(C)OC(=O)Nc1ccc(-c2cccnc2CNC(N)=O)c(Cc2cccc(F)c2)c1F [Example A-15] | 300 to 30000 nM |
| CC(C)(C)OC(=O)Nc1ccc(-c2cccnc2CNC(N)=O)c(Cc2ccc(F)cc2)c1F [Example A-16] | < 300 nM |
| COc1ccccc1Cc1c(-c2cccnc2CNC(N)=O)ccc(NC(=O)OC(C)(C)C)c1F [Example A-17, tert-Butyl (2-fluoro-3-(2-methoxybenzyl)-4-(2-(ureidomethyl)pyridin-3-yl)phenyl)carbamate] | 300 to 30000 nM |
| CC(C)(C)OC(=O)Nc1ccc(-c2cccnc2CNC(N)=O)c(Cc2ccccc2OCc2ccccc2)c1F [Example A-18, tert-Butyl (3-(2-(benzyloxy)benzyl)-2-fluoro-4-(2-(ureidomethyl)pyridin-3-yl)phenyl)carbamate] | 300 to 30000 nM |

| SMILES | IC50 |
| --- | --- |
| CC(C)(C)OC(=O)Nc1ccc(-c2cccnc2CNC(N)=O)c(Cc2ccccc2O)c1F [Example A-19, tert-Butyl (2-fluoro-3-(2-hydroxybenzyl)-4-(2-(ureidomethyl)pyridin-3-yl)phenyl)carbamate] | < 300 nM |
| CC(C)(COCc1ccccc1)OC(=O)Nc1ccc(-c2cccnc2CNC(N)=O)c(Cc2ccccc2F)c1F [Example A-20, 1-(Benzyloxy)-2-methylpropan-2-yl (2-fluoro-3-(2-fluorobenzyl)-4-(2-(ureidomethyl)pyridin-3-yl)phenyl)carbamate] | < 300 nM |
| CC(C)(CO)OC(=O)Nc1ccc(-c2cccnc2CNC(N)=O)c(Cc2ccccc2F)c1F [Example A-21, 1-Hydroxy-2-methylpropan-2-yl (2-fluoro-3-(2-fluorobenzyl)-4-(2-(ureidomethyl)pyridin-3-yl)phenyl)carbamate] | 300 to 30000 nM |
| CC(C)OC(=O)Nc1ccc(-c2cccnc2CNC(N)=O)c(Cc2ccccc2F)c1F [Example A-22] | < 300 nM |
| C[C@H](OC(=O)Nc1ccc(-c2cccnc2CNC(N)=O)c(Cc2ccccc2F)c1F)C(F)(F)F [Example A-23] | < 300 nM |
| C[C@@H](OC(=O)Nc1ccc(-c2cccnc2CNC(N)=O)c(Cc2ccccc2F)c1F)C(F)(F)F [Example A-24] | < 300 nM |
| COC[C@H](C)OC(=O)Nc1ccc(-c2cccnc2CNC(N)=O)c(Cc2ccccc2F)c1F [Example A-25, (S)-1-Methoxypropan-2-yl (2-fluoro-3-(2-fluorobenzyl)-4-(2-(ureidomethyl)pyridin-3-yl)phenyl)carbamate] | 300 to 30000 nM |
| NC(=O)NCc1ncccc1-c1ccc(NC(=O)OC2CC2)c(F)c1Cc1ccccc1F [Example A-26, Cyclopropyl (2-fluoro-3-(2-fluorobenzyl)-4-(2-(ureidomethyl)pyridin-3-yl)phenyl)carbamate] | 300 to 30000 nM |
| NC(=O)NCc1ncccc1-c1ccc(NC(=O)OC2CCC(F)(F)C2)c(F)c1Cc1ccccc1F (centres unmarked) [Example A-27, 3,3-Difluorocyclopentyl (2-fluoro-3-(2-fluorobenzyl)-4-(2-(ureidomethyl)pyridin-3-yl)phenyl)carbamate] | < 300 nM |
| NC(=O)NCc1ncccc1-c1ccc(NC(=O)OC2CCOC2)c(F)c1Cc1ccccc1F (centres unmarked) [Example A-28] | 300 to 30000 nM |
| NC(=O)NCc1ncccc1-c1ccc(NC(=O)OC2CN3CCC2CC3)c(F)c1Cc1ccccc1F (centres unmarked) [Example A-29, (2-Fluoro-3-(2-fluorobenzyl)-4-(2-(ureidomethyl)pyridine-3-yl)phenyl)carbamate quinuclidine-3-yl] | 300 to 30000 nM |
| CN(C)CCCOC(=O)Nc1ccc(-c2cccnc2CNC(N)=O)c(Cc2ccccc2F)c1F [Example A-30, 3-(Dimethylamino)propyl (2-fluoro-3-(2-fluorobenzyl)-4-(2-(ureidomethyl)pyridin-3-yl)phenyl)carbamate] | 300 to 30000 nM |
| NC(=O)NCc1ncccc1-c1ccc(NC(=O)OCC2CC2)c(F)c1Cc1ccccc1F [Example A-31, Cyclopropylmethyl (2-fluoro-3-(2-fluorobenzyl)-4-(2-(ureidomethyl)pyridin-3-yl)phenyl)carbamate] | < 300 nM |
| NC(=O)NCc1ncccc1-c1ccc(NC(=O)OCC2CC2(F)F)c(F)c1Cc1ccccc1F (centres unmarked) [Example A-33] | < 300 nM |
| NC(=O)NCc1ncccc1-c1ccc(NC(=O)OCC2(C(F)F)CC2)c(F)c1Cc1ccccc1F [Example A-34] | < 300 nM |
| NC(=O)NCc1ncccc1-c1ccc(NC(=O)OCC2CCOC2)c(F)c1Cc1ccccc1F (centres unmarked) [Example A-35] | < 300 nM |
| NC(=O)NCc1ncccc1-c1ccc(NC(=O)OCc2ccccc2F)c(F)c1Cc1ccccc1F [Example A-36] | < 300 nM |
| CC(C)(OC(=O)Nc1ccc(-c2cccnc2CNC(N)=O)c(Cc2ccccc2C#N)c1F)C(F)F [Example A-37, 1,1-Difluoro-2-methylpropan-2-yl (3-(2-cyanobenzyl)-2-fluoro-4-(2-(ureidomethyl)pyridin-3-yl)phenyl)carbamate] | 300 to 30000 nM |
| N#Cc1ccccc1Cc1c(-c2cccnc2CNC(N)=O)ccc(NC(=O)OC2CC3CCC2CC3)c1F (centres unmarked) [Example A-38, Bicyclo[2.2.2]octan-2-yl (3-(2-cyanobenzyl)-2-fluoro-4-(2-(ureidomethyl)pyridin-3-yl)phenyl)carbamate] | 300 to 30000 nM |
